Source: patent publication US12616698B2, “Methods for reducing liver fat and for treating fatty liver disorders” (Corcept Therapeutics Incorporated, priority 2021, dated 2026)
Entries after “also recorded” stand apart in the source; their conditions may differ.

Legend:
Male C57 mice = assay: High-fat diet mice: liver triglycerides and plasma AST; format: in vivo, mouse; details: 60 mg/kg once a day oral gavage
Protocol: Male C57 mice (n=24) were given a diet containing […] (a high-fat, “fast food” diet) for 3 weeks. Miricorilant (60 mg/kg) was administered once a day via oral gavage. Plasma aspartate aminotransferase (AST) was measured on days 3, 7, 12, and 18 and 6 mice were sacrificed each week at weeks 1, 2, and 3 for the miricorilant groups and at week 3 for the control (high-fat diet, no miricorilant) group for assessment of liver triglycerides.

[1] = Example 6 study: pharmacokinetics; details: human, in vivo, oral; one patient (FIG. 13)
C57BL/6J male mice [2] = assay: AMLN diet NASH mouse model, once per day oral dosing; format: in vivo; details: 30 mg/kg/day orally once per day, 8 weeks
Protocol: Two studies were conducted in C57BL/6J male mice (n=12 per group) maintained on a diet high in fat (40%), cholesterol (2%) and fructose (20%; referred to as the AMLN diet: see, e.g., Tolbol et al., World Journal of Gastroenterology, 24(2):179-194 (2018)) for 42 weeks before dosing with miricorilant was initiated. In the first study, all animals ate the AMLN diet, and received either placebo, 30 mg/kg miricorilant, or 60 mg/kg mifepristone once per day orally. […] All animals received the AMLN diet for 42 weeks prior to receiving their first dose of study drug or placebo. 4 weeks prior to receiving that first dose, a liver biopsy and histological examination of biopsy tissue was performed for each animal; 3 weeks prior to receiving that first dose, animals were randomized into three groups: control, miricorilant, or mifepristone. […] At 56 days (week 8) after initiation of drug administration, plasma ALT, AST, triglycerides, total cholesterol, and miricorilant levels were measured, and animals were sacrificed, liver necropsies were performed, liver histological ((NAFLD Activity Score, Fibrosis Stage, steatosis (scored using hematoxylin and eosin staining (HE)), col1a (scored using immunohistochemistry (IHC)) and Galectin-3 (IHC)) and liver biochemical measurements (including liver triglycerides and total cholesterol) were made, and liver and plasma samples were obtained for genetic ((e.g., RNA sequencing) and other analyses.
Thus, in these studies, the mice were subjected to a liver biopsy approximately 4 weeks before initiation of dosing with miricorilant and only mice with confirmed fibrosis (fibrosis stage ≥1) and steatosis (score ≥2) were entered into the study. […] Body weight and food consumption were monitored throughout the study.
Liver samples were fixed in formalin, paraffin embedded and sections were stained with hematoxylin and eosin (H&E) and Sirius Red. Samples were scored for NAS and fibrosis stage using the clinical criteria outlined by Kleiner et al., Hepatology 41:1313-1321 (2005). […]

C57BL/6J male mice [3] = assay: AMLN diet NASH mouse model, drug provided in the AMLN diet; format: in vivo; details: 60 mg/kg miricorilant in AMLN diet, 8 weeks; for Liver weight at termination of the study: vs diet-alone control (FIG. 8A)
Protocol: Two studies were conducted in C57BL/6J male mice (n=12 per group) maintained on a diet high in fat (40%), cholesterol (2%) and fructose (20%; referred to as the AMLN diet: see, e.g., Tolbol et al., World Journal of Gastroenterology, 24(2):179-194 (2018)) for 42 weeks before dosing with miricorilant was initiated. In the first study, all animals ate the AMLN diet, and received either placebo, 30 mg/kg miricorilant, or 60 mg/kg mifepristone once per day orally. […] All animals received the AMLN diet for 42 weeks prior to receiving their first dose of study drug or placebo. 4 weeks prior to receiving that first dose, a liver biopsy and histological examination of biopsy tissue was performed for each animal; 3 weeks prior to receiving that first dose, animals were randomized into three groups: control, miricorilant, or mifepristone. Only mice with fibrosis stage >=1 and steatosis score >=2 were allowed in the study and the groups were stratified according to liver col1a1 so that each study group had similar overall distributions of liver col1a1 among the mice. All animals continued on the study diet for the 3 weeks following randomization, at which time study drug or placebo administration began. All animals received their assigned drugs for 8 weeks (the 8 week in vivo study period). At 56 days (week 8) after initiation of drug administration, plasma ALT, AST, triglycerides, total cholesterol, and miricorilant levels were measured, and animals were sacrificed, liver necropsies were performed, liver histological ((NAFLD Activity Score, Fibrosis Stage, steatosis (scored using hematoxylin and eosin staining (HE)), col1a (scored using immunohistochemistry (IHC)) and Galectin-3 (IHC)) and liver biochemical measurements (including liver triglycerides and total cholesterol) were made, and liver and plasma samples were obtained for genetic ((e.g., RNA sequencing) and other analyses.
Thus, in these studies, the mice were subjected to a liver biopsy approximately 4 weeks before initiation of dosing with miricorilant and only mice with confirmed fibrosis (fibrosis stage ≥1) and steatosis (score ≥2) were entered into the study. At the end of the dosing period, blood samples were collected for determination of plasma ALT, AST, triglycerides, total cholesterol, and miricorilant. Liver samples were collected for analysis of triglycerides, total cholesterol, hydroxyproline, and histopathology. Body weight and food consumption were monitored throughout the study.
Type I collagen IHC staining Type I collagen (Southern Biotech, Cat. 1310-01) IHC were performed using standard procedures. Briefly, after antigen retrieval and blocking of endogenous peroxidase activity, slides were incubated with primary antibody. The primary antibody was detected using a polymeric HRP-linker antibody conjugate. Next, the primary antibody was visualized with DAB as chromogen. Finally, sections were counterstained in hematoxylin and cover-slipped.
Liver Galectin-3 content Galectin-3 (Biolegend, Cat. #125402) IHC was performed using standard procedures. Briefly, after antigen retrieval and blocking of endogenous peroxidase activity, slides were incubated with primary antibody. The primary antibody was detected using a linker secondary antibody followed by amplification using a polymeric HRP-linker antibody conjugate. Next, the primary antibody was visualized with DAB as chromogen. Finally, sections were counterstained in hematoxylin and cover-slipped.
Total liver col1a1 was evaluated from liver samples stained with anti-type I collagen (col1a1) (Southern Biotech, cat. 1310-01) at the end of the treatment period (typically using low power (20×) magnification). Galectin-3 content was evaluated from images of liver samples stained with anti-Galectin-3 (BioLegend, Cat. 125402) at the end of the treatment period (typically using low power (20×) magnification). Terminal relative (left) and total (right) liver type I Collagen (Col1a1) quantification was determined by morphometry. […]

In the case of `O=c1[nH]c(=O)c(Cc2cccc(C(F)(F)F)c2)c([C@H]2CC[C@H](c3ccccc3)CC2)[nH]1` [miricorilant, (E)-6-(4-Phenylcyclohexyl)-5-(3-trifluoromethylbenzyl)-1H-pyrimidine-2,4-dione], the Liver triglycerides (Male C57 mice; high-fat diet for 3 weeks, starting at week 1, vs high-fat diet control (FIG. 6A)) is reported as “rapid reduction”, the “Plasma AST” value (Male C57 mice; high-fat diet, no change in dose (FIG. 6B)) is reported as “transient increase at 2 weeks but normalized by 3 weeks” and the AUC [1] is reported as 5900 ng·h/mL. The Cmax [1] was 404 ng/mL, the “NAFLD Activity Score (NAS)” value (C57BL/6J male mice [2]; AMLN diet, vs control (FIG. 7A)) was “reduced; also recorded: significant reductions; also recorded: either did not increase, or decreased” and the “Hepatic ballooning portion of the NAFLD score (liver cell degeneration)” value (C57BL/6J male mice [2]; post- vs pre-study biopsy (FIG. 7B)) was “reduced”. The “Fibrosis stage score, post-study compared to pre-study” value (C57BL/6J male mice [2]; none showed an increased score) was “some mice in the miricorilant group showed decreased post-study fibrosis stage score”, the “Relative and total liver Galectin-3 content” value (C57BL/6J male mice [3]; IHC morphometry, vs vehicle (FIG. 8C)) was “reduced” and the “Total liver type I collagen (col1a1) content” value (C57BL/6J male mice [3]; IHC morphometry, vs vehicle, significant as total weight (FIG. 8B)) was “reduced”. The Body weight (C57BL/6J male mice [3]; vs diet-alone control) was “significantly reduced”, the “Liver weight at termination of the study” value (C57BL/6J male mice [3]) was “reduced” and the “Liver weight at termination of the study” value (C57BL/6J male mice [3]; listed as Miricorilant) was “significantly reduced”.
